We go through 2 molecules from patent publication US20040242694A1, “Remedial agent for cardiac failure” (priority 2001, published 2004).

In data set [1] the test system is animal test mode of ventricular failure. The following applies: J Pharmacol Exp Ther 291(2) 799-811 (1999); Circ Res 85(4) 364-376 (1999); cited from earlier work.
In another data set the test system is mice. Put plainly: Toxicity, oral administration to mice. It counts as in vivo. On the procedure:
It was considered that the toxicities of the compounds in the present invention could be very low and safe to use as a medicine. For example, the lowest lethal dose in oral administration of compound (II) to mice was 2000 mg/kg.

Data set [2] relates to Dahl's salt-sensitive rat. Description: P-V curve of removed hearts under perfuse by Langendorff's method. The following applies: compared with the control group; Langendorff perfusion. It counts as ex vivo. On the procedure: In the above model of cardiac failure using Dahl's salt-sensitive rat, internal pressure and volume of left ventricle of hearts removed from 11, 15, and 17 weeks rats were measured under perfuse by Langendorff's method.

Take `CC(C)[C@H](NS(=O)(=O)c1ccc(-c2ccc(Br)cc2)cc1)C(=O)O` [PD166793]: in data set [1], the “effect on animal test model of ventricular failure” value was “effective”.

For the molecule `CCOCOC[C@H](C[C@H](C)C(=O)NO)NC(=O)c1ccc(Oc2ccccc2)cc1` [compound (II), N-hydroxy-5-ethoxymethyloxy-2(S)-methyl-4(S)-(4-phenoxybenzoyl)aminopentanamide], the lowest lethal dose in the data set on mice turned out to be 2000 mg/kg. For the same molecule, the “P-V curve (internal pressure and volume of left ventricle)” value in data set [2] is “shifts to the left side”.
